Results from patent publication EP4596574A1, “GLP-1/GCG/GIP TRIPLE-RECEPTOR AGONIST AND USE THEREOF” (Sunshine Lake Pharma Co., Ltd., priority 2022, dated 2024).
pEC50: −log10 of the molar value. Marks after values point to notes of the source that are not given here.

Legend:
GCGR = target: T1, GCGR (Homo sapiens, UniProt P47871); assay: In vitro cell activity, cAMP production in HEK293 cells expressing GCGR; assay type: cell-based
T1 construct: expressed in transfected cells; host or cells: HEK293 (HEK293-GCGR)
How it was run: (§1)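 HEK293 transfectants, 4×10^5 cells/mL, 384-well. Detection: cAMP-d2 + anti-cAMP cryptate 1:1, RT 1 h dark or 4 °C o/n. Read 665/620 nm; 4-parameter nonlinear fit → EC50.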

[1] = In vivo efficacy evaluation in db/db mouse model (blood glucose); design: species or system db/db mice
Procedure: Blood glucose was tested before each administration.

GIPR = target: T2, GIPR (Homo sapiens, UniProt P48546); assay: In vitro cell activity, cAMP production in HEK293 cells expressing GIPR; assay type: cell-based
T2 construct: expressed in transfected cells; host or cells: HEK293 (HEK293-GIPR)
T2 sequence (P48546 22-466): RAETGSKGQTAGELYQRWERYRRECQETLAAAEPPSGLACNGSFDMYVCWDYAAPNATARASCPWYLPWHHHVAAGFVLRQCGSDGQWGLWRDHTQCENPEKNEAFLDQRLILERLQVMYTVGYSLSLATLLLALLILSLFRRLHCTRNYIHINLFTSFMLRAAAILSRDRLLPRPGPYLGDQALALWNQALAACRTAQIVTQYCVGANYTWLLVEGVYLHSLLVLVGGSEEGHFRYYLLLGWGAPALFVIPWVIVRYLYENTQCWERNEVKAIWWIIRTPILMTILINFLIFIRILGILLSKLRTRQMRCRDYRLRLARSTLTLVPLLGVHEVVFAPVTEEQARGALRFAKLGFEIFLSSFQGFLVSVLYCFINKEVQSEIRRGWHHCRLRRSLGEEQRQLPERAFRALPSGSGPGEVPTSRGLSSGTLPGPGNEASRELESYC
How it was run: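 HEK293 cells expressing human GIPR, thawed and diluted to 4×10^5 cells/mL, are stimulated with test compound. cAMP is measured by HTRF competition between cAMP-d2 and anti-cAMP cryptate. EC50 comes from a four-parameter nonlinear fit of signal ratio against concentration.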

GLP-1R = target: T3, GLP-1R (Homo sapiens, UniProt P43220); assay: In vitro cell activity, cAMP production in HEK293 cells expressing GLP-1R; assay type: cell-based
T3 construct: expressed in transfected cells; host or cells: HEK293 (HEK293-GLP-1R)
How it was run: as §1

T1 sequence (P47871 26-477, species assumed): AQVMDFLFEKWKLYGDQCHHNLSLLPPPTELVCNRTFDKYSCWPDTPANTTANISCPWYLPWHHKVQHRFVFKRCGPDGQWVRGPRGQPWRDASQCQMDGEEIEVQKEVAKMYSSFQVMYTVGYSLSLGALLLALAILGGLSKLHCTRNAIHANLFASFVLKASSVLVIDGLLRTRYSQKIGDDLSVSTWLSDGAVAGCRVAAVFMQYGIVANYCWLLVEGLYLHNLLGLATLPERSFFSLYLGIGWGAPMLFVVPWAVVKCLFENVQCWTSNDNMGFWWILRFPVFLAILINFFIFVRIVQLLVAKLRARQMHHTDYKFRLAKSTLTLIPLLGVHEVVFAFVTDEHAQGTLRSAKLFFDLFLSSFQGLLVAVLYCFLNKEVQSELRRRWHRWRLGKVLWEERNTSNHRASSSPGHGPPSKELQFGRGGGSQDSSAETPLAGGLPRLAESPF
T3 sequence (P43220 24-463, species assumed): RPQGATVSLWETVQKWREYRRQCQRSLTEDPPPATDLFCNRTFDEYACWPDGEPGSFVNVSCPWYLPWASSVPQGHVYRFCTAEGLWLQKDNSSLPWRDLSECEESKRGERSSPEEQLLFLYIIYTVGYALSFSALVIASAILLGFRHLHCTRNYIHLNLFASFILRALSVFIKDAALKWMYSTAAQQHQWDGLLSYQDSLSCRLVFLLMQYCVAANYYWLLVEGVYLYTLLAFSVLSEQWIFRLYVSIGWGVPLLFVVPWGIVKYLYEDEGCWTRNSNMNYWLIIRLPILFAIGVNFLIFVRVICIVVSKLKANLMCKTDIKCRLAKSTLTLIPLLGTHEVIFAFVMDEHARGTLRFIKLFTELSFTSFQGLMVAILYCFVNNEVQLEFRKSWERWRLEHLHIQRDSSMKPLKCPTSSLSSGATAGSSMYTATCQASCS

CC[C@H](C)[C@H](NC(=O)[C@H](Cc1ccccc1)NC(=O)[C@H](C)NC(=O)[C@H](CCCNC(=N)N)NC(=O)[C@H](CCC(N)=O)NC(=O)[C@H](C)NC(=O)[C@H](CCCCNC(=O)COCCOCCNC(=O)CC[C@H](NC(=O)CCCCCCCCCCCCCCCCCCC(=O)O)C(=O)O)NC(=O)[C@H](CCC(=O)O)NC(=O)[C@H](CC(=O)O)NC(=O)[C@H](CC(C)C)NC(=O)[C@H](CC(C)C)NC(=O)[C@@H](NC(=O)[C@H](CO)NC(=O)[C@H](Cc1ccc(O)cc1)NC(=O)[C@H](CC(=O)O)NC(=O)[C@H](CO)NC(=O)[C@@H](NC(=O)[C@](C)(Cc1ccccc1F)NC(=O)[C@@H](NC(=O)CNC(=O)[C@H](CCC(N)=O)NC(=O)C(C)(C)NC(=O)[C@@H](N)Cc1ccc(O)cc1)[C@@H](C)O)[C@@H](C)O)[C@@H](C)CC)C(=O)N[C@@H](CCC(=O)O)C(=O)N[C@@H](Cc1ccc(O)cc1)C(=O)N[C@@H](CC(C)C)C(=O)N[C@@H](CC(C)C)C(=O)N[C@@H](CCC(=O)O)C(=O)NCC(=O)NCC(=O)N1CCC[C@H]1C(=O)N[C@@H](CO)C(=O)N[C@@H](CO)C(=O)NCC(=O)N[C@@H](C)C(=O)N1CCC[C@H]1C(=O)N1CCC[C@H]1C(=O)N1CCC[C@H]1C(=O)N[C@@H](CO)C(=O)O [HEC-PT85]
pEC50 (GCGR): 9.22
blood glucose after administration ([1]; db/db mice, 10 nmol/kg): significantly reduce blood glucose
Random blood glucose (mM) D0 ([1]; db/db mice, 10 nmol/kg s.c. once every three days, D0 (before first dose)): 26.2 ± 2.8 mM
Random blood glucose (mM) D3 ([1]; db/db mice, 10 nmol/kg s.c. once every three days, D3): 11.8 ± 3.6 mM
Random blood glucose (mM) D4 ([1]; db/db mice, 10 nmol/kg s.c. once every three days, D4): 17.6 ± 3.1 mM
Random blood glucose (mM) D5 ([1]; db/db mice, 10 nmol/kg s.c. once every three days, D5): 20.2 ± 5.5 mM
Random blood glucose (mM) D6 ([1]; db/db mice, 10 nmol/kg s.c. once every three days, D6): 17.3 ± 3.4 mM
Random blood glucose (mM) D7 ([1]; db/db mice, 10 nmol/kg s.c. once every three days, D7): 21.3 ± 3.5 mM
Random blood glucose (mM) D10 ([1]; db/db mice, 10 nmol/kg s.c. once every three days, D10): 11.8 ± 3.8 mM
Random blood glucose (mM) D13 ([1]; db/db mice, 10 nmol/kg s.c. once every three days, D13): 14.7 ± 4.9 mM
Random blood glucose (mM) D16 ([1]; db/db mice, 10 nmol/kg s.c. once every three days, D16): 12.8 ± 3.9 mM
Random blood glucose (mM) D19 ([1]; db/db mice, 10 nmol/kg s.c. once every three days, D19): 13.7 ± 2.5 mM
Random blood glucose (mM) D22 ([1]; db/db mice, 10 nmol/kg s.c. once every three days, D22): 17.2 ± 4.2 mM
Random blood glucose (mM) D25 ([1]; db/db mice, 10 nmol/kg s.c. once every three days, D25): 15.7±4.5^a mM
Random blood glucose (mM) 6 h ([1]; db/db mice, 10 nmol/kg s.c., 6 h): 15.3 ± 5.4 mM
Random blood glucose (mM) 24 h ([1]; db/db mice, 10 nmol/kg s.c., 24 h): 10.1 ± 3.7 mM
Random blood glucose (mM) 48 h ([1]; db/db mice, 10 nmol/kg s.c., 48 h): 12.9 ± 4.2 mM
time at which blood glucose levels reached the lowest level ([1]; db/db mice, 10 nmol/kg, after administration): about 24 hours
blood glucose lowering after long-term administration compared with LY3298176 ([1]; db/db mice, long-term repeated administration): not inferior to the positive control LY3298176
blood glucose reducing effect after administration compared with LY3298176 ([1]; db/db mice, same dose 10 nmol/kg): slightly better than the positive control LY3298176
blood glucose level after long-term administration ([1]; type II diabetes model db/db mice): significantly improve the blood glucose level
pEC50 (GIPR): 9.63
pEC50 (GLP-1R): 9.59
